Results published in patent publication US8691577B2, “Somatic embryogenesis of Jatropha curcas from ovules” (Joil (S) Pte Ltd., priority 2008, dated 2014).
Entries after “also recorded” stand apart in the source; their conditions may differ.

Assays:
[1] = tested on: ovule explants of Jatropha curcas; assay: Induction of embryogenic callus from ovule explants on MS initiation medium; type: cell-based
Excerpt: (§1) The initiation medium was MS basal medium (MS mineral salts and vitamins) supplemented with sucrose (3%) as the carbon source and included phytoagar (0.8%) as a gelling agent. The pH of the medium was 5.8. The germination medium was MS basal medium supplemented with sucrose (3%) as the carbon source and included phytogel (0.25%) as a gelling agent. The pH of the medium was 5.8. The media were dispensed into sterilized Petri dish (90×15 mm size, plastic polycarbonate, Canada). The chemicals used for media preparations were of analytical grade (Duchefa Biochemie, Haarlem, The Netherlands and Sigma Aldrich, Inc., St Louis, USA).
Different hormones were added to the media for the development of the method according to the present invention. In general, the media contained a reduced concentration of phytohormones. The hormones that were tested in the media were phytohormones that will affect growth in the desired manner during different stages of tissue culture. Examples of phytohormones that were tested include natural or synthetic auxin (2,4-D, indole-3-acetic acid (IAA), IBA), cytokinin (BA, KN,), GA3, or cytokinin-active urea derivatives (such as TDZ). The hormones were tested singly or in combination. For induction of embryogenic callus, only 2,4-D (2.26, 4.52, 6.78 and 9.02 μM) was effective.
(§2) The sterilized flower buds were dissected using stereo microscope and the ovules were isolated and injured using dissection needle. The injured ovule explants were inoculated onto initiation medium supplemented with different phytohormones and incubated in dark for 40 days. The callus induced from these ovules was transferred to the fresh initiation medium and cultured in the light (16/8 h (light/dark) photoperiod period, light intensity of 25 μE m^−2s^−1) for somatic embryo development and maturation. The callus with developing and maturing somatic embryos were subcultured every two weeks. The mature cotyledon shaped somatic embryos that developed from this embryogenic callus were transferred to germination medium for germination. The germinating somatic embryos were subcultured every two weeks. The germinated plantlets were hardened and transferred to green house. All cultures were maintained at 25° C.±2° C. with 55%-60% relative humidity. Approximately 12-15 mature cotyledon shaped embryos were developed per 100 mg of embryogenic callus, and 95% of the somatic embryos were developed.

[2] = tested on: embryogenic callus from ovules of Jatropha curcas; assay: Somatic embryo development and maturation from embryogenic callus; type: cell-based
Experimental: as §2
Induction of callus occurred in MS medium containing different auxins and cytokinins individually as well as in combinations.

[3] = tested on: leaf explants of J. curcas; details: Jha et al. (2007), cited from earlier work
[4] = tested on: mature somatic embryos of Jatropha curcas; assay: Germination of somatic embryos and growth of plantlets on MS germination medium; type: cell-based; details: for growth of germinated plantlets: added to germination medium (MS with IBA and GA3); for germination of somatic embryos: auxin in combination with GA3 (0.72, 1.44, 2.88, 5.76 μM) in MS medium, IBA 1.23-4.92 μM, IAA 1.42-8.56 μM, NAA 1.34-8.04 μM
Excerpt: as §1, §2

[5] = tested on: embryogenic callus of Jatropha curcas; assay: Production of double haploid plantlets by treating embryogenic callus with a mitotic inhibitor; type: cell-based
Experimental: Double haploid plants are produced by treating the embryogenic callus with a mitotic inhibitor. In one embodiment, the embryogenic callus is treated with the mitotic inhibitor for one day to three days, preferably three days. In one embodiment, the mitotic inhibitor is colchicine. In one embodiment, the embryogenic callus is treated with 0.1% to 0.5%, preferably 0.5% colchicine. In another embodiment, the mitotic inhibitor is oryzalin. In one embodiment, the embryogenic callus is treated with 0.1% to 0.5%, preferably 0.5% oryzalin. The mitotic inhibitor is added to the embryogenic callus induction medium, described above, prior to transfer of the embryogenic callus to the fresh initiation medium. The culture conditions for culturing in the presence of the mitotic inhibitor is the same as for somatic embryogenic callus induction. Following treatment with the mitotic inhibitor, the treated embryogenic callus is placed on fresh initiation medium for the development and maturation of somatic embryos and cultured as described above. The mature somatic embryos are placed on the germination medium and cultured as described above to germinate double haploid plantlets as described above.
Embryogenic callus prepared as described in Example 5 which is above to develop into somatic embryos (after forty days of embryogenic callus induction) was treated with different concentration of colchicines (0.1-1%) for three-days. The culture condition (temperature, photoperiod and light) are same as described above. After the colchicine treatment, the treated embryogenic callus was transferred to fresh initiation medium (MS medium containing 2,4-D (6.78 μM)) and cultured as described in Example 5 for the development of somatic embryos. The mature somatic embryos were transferred to germination media (MS medium fortified with GA3 and IBA) and cultured as described in Example 5 for plantlet development.

[6] = hormone alone in MS initiation medium, 2,4-D 2.26, 4.52, 6.78, 9.02 μM, IAA 0.71-5.70 μM, IBA 0.615-4.92 μM

For `O=C(O)COc1ccc(Cl)cc1Cl` [2,4-D, 2,4-dichlorophenoxyacetic acid], the “induction of embryogenic callus” value ([1]; MS medium supplemented with 2,4-D, dark conditions) was “induced embryogenic callus; also recorded: vital”, the “induction of embryogenic callus” value ([1]; MS medium supplemented with 2,4-D, in the presence of light) was “not result in the induction of embryogenic callus” and the “induction of embryogenic callus” value [1, 6] was “effective in inducing embryogenic callus”. For the same compound, the “somatic embryo development (globular, heart, torpedo and cotyledon-shaped)” value ([2]; MS medium containing 2,4-D) was “effective” and the “outcome of continuous culture of somatic embryos” value ([2]; continuous culture in MS medium containing 2,4-D) was “abnormal somatic embryo formation without germination”.
In the case of `Nc1ncnc2nc[nH]c12.O=S(=O)(O)O` [AdSO4, adenine sulphate], the “effect on somatic embryo development” value ([3]; 13.6 μM added) is listed as “stimulated the process of somatic embryo development”, the “growth of germinated plantlets” value ([4]; sulphate) is listed as “enhanced the growth of germinated plantlets” and the “type of callus induced” value ([1]; addition to callus induction medium) is listed as “induction of greenish compact callus that becomes non-embryogenic”.
For `c1ccc(CNc2ncnc3nc[nH]c23)cc1` [BA, 6-benzylaminopurine], the “growth of germinated plantlets” value [4] was “enhanced the growth of germinated plantlets”.
For `O=C(O)Cc1c[nH]c2ccccc12` [IAA, indole-3-acetic acid], the “germination of somatic embryos” value [4] was “not effective” and the “induction of embryogenic callus” value [1, 6] was “induced only non-embryogenic callus”.
For `O=C(O)CCCc1c[nH]c2ccccc12` [IBA, indole-3-butyric acid], the “germination of somatic embryos” value [4] was “effective; also recorded: occurred” and the “induction of embryogenic callus” value [1, 6] was “induced only non-embryogenic callus”.
In the case of `c1coc(CNc2ncnc3[nH]cnc23)c1` [KN, kinetin], the “development of somatic embryos” value ([3]; MS medium with KN 2.3 μM and IBA 1.0 μM) is given as “developed”, the “induction of embryogenic callus from leaf explants” value ([3]; MS medium with KN 9.3 μM) is given as “induced” and the “growth of germinated plantlets” value [4] is given as “enhanced the growth of germinated plantlets”.
In the case of `O=C(O)Cc1cccc2ccccc12` [NAA], the “germination of somatic embryos” value [4] is reported as “not effective”.
For `O=C(Nc1ccccc1)Nc1cnns1` [TDZ, thidiazuron], the “growth of germinated plantlets” value [4] was “enhanced the growth of germinated plantlets”.
For `COc1cc2c(c(OC)c1OC)-c1ccc(OC)c(=O)cc1[C@@H](NC(C)=O)CC2` [colchicines, colchicine], the “most effective concentration for production of double haploid plantlets” value ([5]; 0.1-1% tested, three days treatment of embryogenic callus) was 0.5%, the “effect on callus at higher concentration” value ([5]; concentration above 0.5%) was “callus become brown and died” and the “morphological characters of treated plantlets” value ([5]; plantlets from treated embryogenic callus) was “like double haploid”.
